Broadly, the half-life is the time in which the quantity being followed falls by half. The IC50 is the midpoint of a concentration-inhibition curve. Higher therefore signals lower potency. For orientation: Tmax means the time from dosing to the highest level. In general, Cmax refers to the maximum level reached in the sampled fluid or tissue. The EC50 is the concentration at which the effect is half-maximal. Read a low EC50 as greater potency.

Structures are written as SMILES.

The results in this text go back to ChEMBL document CHEMBL1151013, “The chemical evolution of N,N-dimethyl-2-[5-(1,2,4-triazol-4-yl)-1H-indol-3-yl]ethylamine (L-741,604) and analogues: Potent and selective agonists for 5-HT1D receptors” (Bioorg Med Chem Lett, 1996).

The nature of series [1]: Half-life in rat plasma was determined. The class given is ADME, organism-based.
The nature of series [2]: Plasma clearance in rat was determined. The class given is ADME, organism-based. Conditions: read-out: Clp.
The species entered for series [3] is Rattus norvegicus. Put plainly: Maximum fall in carotid flow in rat. The class given is organism-based. Conditions: in vivo.
For a further series, the species on record is Canis familiaris. Put plainly: The plasma concentration producing half maximal fall in carotid flow in dogs. The class given is functional, organism-based. Conditions: Canis lupus familiaris.
Series [4] can be described thus: Time required to reach maximum concentration in rat plasma. The class given is ADME, organism-based.
Series [5] can be described thus: Maximum concentration in rat plasma was determined. The class given is ADME, organism-based.
The species named for series [6] is Rattus norvegicus. Put plainly: Inhibition of extravation produced in the dura meter by electrical stimulatio of trigeminal ganglion in rat. The class given is functional, organism-based.
The next series is filed under the species Oryctolagus cuniculus. Put plainly: Compound was tested for agonist potency from plots of percentage 5-HT (1 uM) response against concentration of the agonist in white rabbit saphenous vein. The class given is functional, organism-based.

Turning to `CNS(=O)(=O)Cc1ccc2[nH]cc(CCN(C)C)c2c1`, the half-life in series [1] is 1.1 h. In series [2], the clearance stood at 69 mL/min/kg. For the same compound, the “Carotid Flow Decrease” value in the series filed under Rattus norvegicus [3] worked out at 44%. Also, the IC50 in the series listed under Canis familiaris is 48.6 nM. The time of peak concentration (Tmax) in series [4] is 4 h. The same compound returned a maximum concentration (Cmax) in series [5] of 74 ng/mL.
With `CN(C)CCc1c[nH]c2ccc(-n3cnnc3)cc12`, the IC50 in the series filed under Rattus norvegicus [6] turned out to be 13 nM. Moreover, the half-life in series [1] was 1.3 h. For the same compound, the clearance in series [2] amounted to 37 mL/min/kg. In the series listed under Rattus norvegicus [3], the “Carotid Flow Decrease” value came out at 27%. The half-maximal effective concentration (EC50) in the series filed under Oryctolagus cuniculus turned out to be 32 nM. The time to peak (Tmax) in series [4] worked out at 1 h. Moreover, in series [5], the highest concentration (Cmax) came to 83 ng/mL.
Consider `CN1CCC(c2c[nH]c3ccc(-n4cnnc4)cc23)CC1`, for which the 50% inhibitory concentration (IC50) in the series filed under Rattus norvegicus [6] came to 69 nM; in the series listed under Canis familiaris it was 6.9 nM. The compound also showed a half-life in series [1] of 2 h. Further, in series [2], the clearance is 48 mL/min/kg. Besides, in the series listed under Rattus norvegicus [3], the “Carotid Flow Decrease” value is listed as 20%. For the same compound, in the series listed under Oryctolagus cuniculus, the EC50 amounted to 39 nM. Besides, the Tmax in series [4] was 3 h. The same compound yielded a Cmax in series [5] of 53 ng/mL.
In turn, `CN(C)CCc1c[nH]c2ccc(-n3cncn3)cc12` gave a concentration for a half-maximal effect (EC50) in the series filed under Oryctolagus cuniculus of 62 nM.
Take `CN(C)CCc1c[nH]c2ccc(Cn3cncn3)cc12` [RIZATRIPTAN]: the half-life in series [1] was 0.8 h. In addition, the clearance in series [2] was 79 mL/min/kg. Besides, in the series filed under Rattus norvegicus [3], the “Carotid Flow Decrease” value is listed as 76%. In series [4], the Tmax was 0.75 h. In addition, the highest level in series [5] (Cmax) was 271 ng/mL.
